Assay results published in US5583198A, “Amino acids, peptides or derivatives thereof coupled to fats” (Commonwealth Scientific and Industrial Research Organization, priority 1989, dated 1996).

Tests used:
[1] = system: U937 cells (human monocyte-like histiocytic lymphoma); assay: 3H-thymidine incorporation (mitogenic effect) in U937 cells; format: cell-based
Procedure: (§1) ^3 H-thymidine incorporation experiments were carried out in Linbro-Titertek microtitre plates (Flow Laboratories, Inc., U.S.A.) following the method of L. Bradley in "Selected Methods of Cellular Immunology (1980) Eds. B. B. Mishell and S. M. Shiigi; Publisher. W. H. Freeman and Co., U.S.A. pp156. The tests were carried out externally by Dr. D. Rathjen of Peptide Technology Ltd., Dee Why, N.S.W.
2. U937; a human monocyte-like3 histiocytic lymphoma (source: American Tissue Culture Collection).
(§2) RD10 cells (at a cell density 5×10^5 /ml, 100 ul/well) were cultured for 20 hours at 37° C. with 5% CO2 in RPMI 1640 medium, supplemented with 10% Fetal Calf. Serum. Samples to be tested were mixed and sonicated with this medium at a concentration of 5000, 500.50 and 5 ug/ml and 100 ul aliquots added to the cells. The cells were pulsed with 0.5 uCi/well of ^3 H-thymidine and the plates incubated for four more hours before harvesting (Titertek Skatron harvester, Lier, Norway). Incorporated radioactivity was measured by liquid scintillation counting. All assays were performed in triplicate.

[2] = system: RD10 cells (B-cell lymphoma); assay: 3H-thymidine incorporation (mitogenic effect) in RD10 cells; format: cell-based
Procedure: as §1
1. RD10; a B-cell lymphoma (obtained from the Centre for Immunology, Sydney University, Sydney, NSW.
as §2

[3] = biological target: T1, papain (Carica papaya, UniProt P00784); assay: Protease treatment with papain (hydrolysis followed by HPLC); format: biochemical; conditions: phosphate buffer pH 6.5, enzyme/substrate 1:50, HPLC monitoring; main product Z-Ala-OH / Z-Gly-OH
T1 construct: purchased Sigma
T1 sequence (P00784 134-345): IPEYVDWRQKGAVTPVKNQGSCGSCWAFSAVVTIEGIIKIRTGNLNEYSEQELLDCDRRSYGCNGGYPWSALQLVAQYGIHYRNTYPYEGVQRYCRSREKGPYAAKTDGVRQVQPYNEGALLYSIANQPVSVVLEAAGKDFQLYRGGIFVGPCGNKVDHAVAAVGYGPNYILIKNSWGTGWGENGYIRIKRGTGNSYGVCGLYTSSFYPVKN
Procedure: (§3) Z-Gly-TRIS and Z-Ala-TRIS were incubated with papain, and Z-Leu-Arg-TRIS with trypsin, to test that the action of proteolytic enzymes could regenerate the starting compounds Z-Gly-OH, Z-Ala-OH and Z-Leu-Arg-OH respectively.
50 ul of a suspension of papain (25 mg/ml, Sigma) was incubated with 20 mM aqueous solution of EDTA (50 ul); 1 Molar solution of mercaptoethanol (25 ul); 50 mM triethylamine (25 ul); and water (100 ul) at 37° C. for 30 min.
a) Papain. Z-Ala-TRIS in 50 mmolar phosphate buffer pH 6.5 (650 ul), 20 mM ethylene-diamise-tetra-acetic acid (100 ul) and water to 1 ml. Activated papain (5 mg/ml) was added to a final enzyme/substrate ratio of 1:50. The reaction was followed by HPLC on C18 reverse phase columns and the hydrolysis product identified by co-chromatography with standards. Blanks were incubated as above using water instead of enzyme solution.

[4] = biological target: T2, TPCK trypsin (Bos taurus, UniProt P00760); assay: Protease treatment with trypsin (hydrolysis followed by HPLC); format: biochemical; conditions: 0.2M ammonium hydrogen carbonate, 37° C., enzyme/substrate 1:50; product Z-Leu-Arg-OH
T2 sequence (P00760 24-246): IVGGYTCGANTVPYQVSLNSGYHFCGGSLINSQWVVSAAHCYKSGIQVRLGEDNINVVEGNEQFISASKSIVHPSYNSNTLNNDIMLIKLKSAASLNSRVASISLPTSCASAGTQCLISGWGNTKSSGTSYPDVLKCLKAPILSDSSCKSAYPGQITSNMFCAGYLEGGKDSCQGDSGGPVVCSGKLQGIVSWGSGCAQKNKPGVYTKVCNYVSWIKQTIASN
Procedure: as §3
b) Trypsin. Z-Leu-Arg-TRIS was incubated at a concentration between 2 and 10 mg/ml in 0.2M ammonium hydrogen carbonate. Freshly prepared TPCK trypsin (1 mg/ml in water) was added to the solution giving a final enzyme/substrate ratio of 1:50. Samples were incubated at 37° C. and aliquots examined by reverse phase HPLC. Additional amounts of enzyme were added as required.

[5] = system: RD10 cells (B-cell lymphoma); conditions: under these conditions; cited from earlier work

CCCCCCCCCCCCCCCC(=O)OCC(COC(=O)CCCCCCCCCCCCCCC)(COC(=O)CCCCCCCCCCCCCCC)NC(=O)C(C)N (stereo not drawn) [Ala-TRIS-Tripalmitate]
Thymidine incorporation [1]: slightly diminished responses
3H-thymidine uptake response compared with Z-Ala-TRIS-Tripalmitate [2]: slightly diminished response

CCCCCCCCCCCCCCCC(=O)OCC(COC(=O)CCCCCCCCCCCCCCC)(COC(=O)CCCCCCCCCCCCCCC)NC(=O)C(C)NC(=O)OCc1ccccc1 (stereo not drawn) [Z-Ala-TRIS-Tripalmitate, Z-Ala-TRIS-TRIPALMITATE]
Thymidine incorporation [1]: close to control
cytotoxic effects ([1]; at higher concentrations): slight cytotoxic effects
3H-thymidine uptake: increase in cell proliferation compared to control ([2]; 20 hours culture, 4 hours pulse): 3-4 fold

CC(NC(=O)OCc1ccccc1)C(=O)NC(CO)(CO)CO (stereo not drawn) [Z-Ala-TRIS]
enzymatic hydrolysis by papain [3]: hydrolysed by papain, albeit very slowly

O=C(CNC(=O)OCc1ccccc1)NC(CO)(CO)CO [Z-Gly-TRIS]
enzymatic hydrolysis by papain [3]: hydrolysed by papain, albeit very slowly

CC(C)C[C@H](NC(=O)OCc1ccccc1)C(=O)N[C@@H](CCCNC(=N)N)C(=O)NC(CO)(CO)CO [Z-Leu-Arg-TRIS]
enzymatic hydrolysis by trypsin [4]: hydrolyzed slowly

phytohaemagglutinin
3H-thymidine uptake: increase in cell proliferation (known mitogen, for comparison) [5]: 5-10 fold
